Results from patent US11576905B2, “Topical semisolid composition containing an antimicrobial agent and pirfenidone for the treatment of chronic skin damage” (Excalibur Pharmaceuticals, Inc., priority 2017, dated 2023).

How the values were obtained:
TGFβ1 = TGFβ1 gene expression in ulcer tissue biopsies of treated patients; assay type: in vivo, human; conditions: first month of treatment
COL1α = COL1α gene expression in ulcer tissue biopsies of treated patients; assay type: in vivo, human; conditions: first month of treatment

Structure (SMILES): O=C(c1ccc(F)cc1)C1CCN(CCn2c(=O)[nH]c3ccccc3c2=O)CC1 [KTS, Ketanserin]
- Patients showing an increase in TGFβ1 gene expression (TGFβ1): 29%
- Patients showing an increase in COL1α expression (COL1α): 43%
